From patent US20230048132A1, “CYCLIN-DEPENDENT KINASE INHIBITORS” (SPV THERAPEUTICS INC., priority 2018, published 2023)
Like-named read-outs stand apart in the source and are kept apart here.

Columns and labels:
[1] = biological target: T1, CDK6-CYCLIND3 (Homo sapiens, UniProt Q00534); assay: CDK inhibition assay (microfluidic LabChip, IC50 format); assay type: biochemical
T1 construct: purchased Carna

[2] = biological target: CDK4-CYCLIND1 (Homo sapiens, UniProt P11802); assay: as above
[3] = Table 4b, upper part, read-out: CDK6 IC50
[4] = CDK4 IC50, Table 4b, upper part
[5] = Table 3, second value of the cell CDK4/CDK6, value of the racemate, read-out: Racemate Activity CDK6
[6] = Racemate Activity CDK4, Table 3, first value of the cell CDK4/CDK6, value of the racemate

CDK4-CYCLIND1, sequence (P11802 whole entry): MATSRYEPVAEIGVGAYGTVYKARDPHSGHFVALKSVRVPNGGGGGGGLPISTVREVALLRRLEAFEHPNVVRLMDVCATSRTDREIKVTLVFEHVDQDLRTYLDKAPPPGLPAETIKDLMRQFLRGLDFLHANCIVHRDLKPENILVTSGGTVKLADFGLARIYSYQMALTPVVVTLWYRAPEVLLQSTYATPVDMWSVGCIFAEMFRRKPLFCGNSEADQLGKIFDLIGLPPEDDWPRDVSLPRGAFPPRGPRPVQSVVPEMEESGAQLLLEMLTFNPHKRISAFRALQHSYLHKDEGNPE
CDK4-CYCLIND1, sequence (P24385 whole entry partner): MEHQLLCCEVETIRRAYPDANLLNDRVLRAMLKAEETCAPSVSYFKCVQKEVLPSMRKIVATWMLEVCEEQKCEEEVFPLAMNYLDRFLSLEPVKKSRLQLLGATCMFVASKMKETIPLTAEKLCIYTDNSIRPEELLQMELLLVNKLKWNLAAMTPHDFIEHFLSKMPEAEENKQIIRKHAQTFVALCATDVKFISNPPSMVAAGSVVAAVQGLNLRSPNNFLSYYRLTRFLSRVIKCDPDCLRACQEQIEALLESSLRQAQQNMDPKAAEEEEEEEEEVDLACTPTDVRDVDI
T1 sequence (Q00534 whole entry): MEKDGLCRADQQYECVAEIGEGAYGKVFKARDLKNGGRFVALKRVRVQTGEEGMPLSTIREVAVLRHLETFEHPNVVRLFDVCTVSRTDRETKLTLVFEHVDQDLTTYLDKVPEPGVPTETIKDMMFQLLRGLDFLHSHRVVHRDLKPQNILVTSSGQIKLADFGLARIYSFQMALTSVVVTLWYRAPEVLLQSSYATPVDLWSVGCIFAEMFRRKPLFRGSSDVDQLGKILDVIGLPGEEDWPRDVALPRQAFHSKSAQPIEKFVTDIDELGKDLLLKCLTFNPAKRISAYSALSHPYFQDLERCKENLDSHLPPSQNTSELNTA
T1 sequence (P30281 whole entry partner): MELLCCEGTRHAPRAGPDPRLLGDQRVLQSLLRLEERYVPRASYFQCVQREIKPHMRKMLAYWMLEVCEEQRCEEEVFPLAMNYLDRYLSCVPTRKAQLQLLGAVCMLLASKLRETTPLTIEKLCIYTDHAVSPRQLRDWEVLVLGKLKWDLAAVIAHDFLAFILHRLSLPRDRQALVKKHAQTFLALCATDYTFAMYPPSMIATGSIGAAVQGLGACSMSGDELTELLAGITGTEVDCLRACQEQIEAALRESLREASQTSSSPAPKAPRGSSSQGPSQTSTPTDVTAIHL

## CN1CCC2(Cc3cnc(Nc4ccc(N5CCNCC5)cc4)nc3N(C3CCCC3)C2=O)C1=O (stereo not shown) [Example D1, 8-cyclopentyl-1′-methyl-2-((4-(piperazin-1-yl)phenyl)amino)-5,8-dihydro-7H-spiro[pyrido[2,3-d]pyrimidine-6,3′-pyrrolidine]-2′,7-dione]
[1]; [3]
  IC50: 84.1 nM
[2]; [4]
  IC50: 27 nM

## CC(C)N1CCN(c2ccc(Nc3ncc4c(n3)N(C3CCCC3)C(=O)C3(CCN(C)C3=O)C4)cc2)CC1 (stereo not shown) [Example D2, 8-cyclopentyl-2-((4-(4-isopropylpiperazin-1-yl)phenyl)amino)-1′-methyl-5,8-dihydro-7H-spiro[pyrido[2,3-d]pyrimidine-6,3′-pyrrolidine]-2′,7-dione]
[1]; [3]
  IC50: 360 nM
[2]; [4]
  IC50: 83.6 nM

## O=C1NCCC12Cc1cnc(Nc3ccc(N4CCNCC4)cc3)nc1N(C1CCCC1)C2=O (stereo not shown) [Example D3, 8-cyclopentyl-2-((4-(piperazin-1-yl)phenyl)amino)-5,8-dihydro-7H-spiro[pyrido[2,3-d]pyrimidine-6,3′-pyrrolidine]-2′,7-dione]
[1]; [5]
  IC50: 6.03 nM
[1]; [3]
  IC50: 6.03 nM
[2]; [4]
  IC50: 2.81 nM
[2]; [6]
  IC50: 2.81 nM

## CN1CCN(c2ccc(Nc3ncc4c(n3)N(C3CCCC3)C(=O)C3(CCNC3=O)C4)cc2)CC1 (stereo not shown) [Example D4, 8-cyclopentyl-2-((4-(4-methylpiperazin-1-yl)phenyl)amino)-5,8-dihydro-7H-spiro[pyrido[2,3-d]pyrimidine-6,3′-pyrrolidine]-2′,7-dione]
[1]; [3]
  IC50: 4.9 nM

## CC(C)N1CCN(c2ccc(Nc3ncc4c(n3)N(C3CCCC3)C(=O)C3(CCNC3=O)C4)cc2)CC1 (stereo not shown) [Example D5]
[1]; [3]
  IC50: 5.67 nM
[2]; [4]
  IC50: 2.64 nM

## CC(C)N1CCN(c2ccc(Nc3ncc4c(n3)N(C3CCCC3)C(=O)C3(CCNC3=O)C4)cn2)CC1 (stereo not shown) [Example D6, 8-cyclopentyl-2-((6-(4-isopropylpiperazin-1-yl)pyridin-3-yl)amino)-5,8-dihydro-7H-spiro[pyrido[2,3-d]pyrimidine-6,3′-pyrrolidine]-2′,7-dione]
[1]; [3]
  IC50: 3.94 nM
[2]; [4]
  IC50: 1.88 nM

## O=C1NCCC12Cc1cnc(Nc3ccc(N4CCNCC4)nc3)nc1N(C1CCCC1)C2=O (stereo not shown) [Example D7, 8-cyclopentyl-2-((6-(piperazin-1-yl)pyridin-3-yl)amino)-5,8-dihydro-7H-spiro[pyrido[2,3-d]pyrimidine-6,3′-pyrrolidine]-2′,7-dione]
[1]; [3]
  IC50: 13.1 nM
[2]; [4]
  IC50: 8.68 nM

## CN1CCN(c2ccc(Nc3ncc4c(n3)N(C3CCCC3)C(=O)C3(CCNC3=O)C4)nc2)CC1 (stereo not shown) [Example D8, 8-cyclopentyl-2-((5-(4-methylpiperazin-1-yl)pyridin-2-yl)amino)-5,8-dihydro-7H-spiro[pyrido[2,3-d]pyrimidine-6,3′-pyrrolidine]-2′,7-dione]
[1]; [3]
  IC50: 3.92 nM
[2]; [4]
  IC50: 2.06 nM

## CC(C)N1CCN(c2ccc(Nc3ncc4c(n3)N(C3CCCC3)C(=O)C3(CCNC3=O)C4)nc2)CC1 (stereo not shown) [Example D9, 8-cyclopentyl-2-((5-(4-isopropylpiperazin-1-yl)pyridin-2-yl)amino)-5,8-dihydro-7H-spiro[pyrido[2,3-d]pyrimidine-6,3′-pyrrolidine]-2′,7-dione]
[1]; [3]
  IC50: 6.11 nM
[2]; [4]
  IC50: 2.99 nM

## CC(C)N1CCN(c2ccc(Nc3ncc4c(n3)N(C3CCCC3)C(=O)C3(CCNC3=O)C4)cc2F)CC1 (stereo not shown) [Example D10, 8-cyclopentyl-2-((3-fluoro-4-(4-isopropylpiperazin-1-yl)phenyl)amino)-5,8-dihydro-7H-spiro[pyrido[2,3-d]pyrimidine-6,3′-pyrrolidine]-2′,7-dione]
[1]; [5]
  IC50: 3.5 nM
[1]; [3]
  IC50: 3.53 nM
[2]; [4]
  IC50: 1.5 nM
[2]; [6]
  IC50: 1.5 nM

## O=C1NCCC12Cc1cnc(Nc3ccc(N4CCNCC4)c(F)c3)nc1N(C1CCCC1)C2=O (stereo not shown) [Example D11, 8-cyclopentyl-2-((3-fluoro-4-(piperazin-1-yl)phenyl)amino)-5,8-dihydro-7H-spiro[pyrido[2,3-d]pyrimidine-6,3′-pyrrolidine]-2′,7-dione]
[1]; [5]
  IC50: 3.5 nM
[1]; [3]
  IC50: 4.38 nM
[2]; [4]
  IC50: 2.09 nM
[2]; [6]
  IC50: 2.1 nM

## CN1CCN(c2ccc(Nc3ncc4c(n3)N(C3CCCC3)C(=O)C3(CCNC3=O)C4)cc2F)CC1 (stereo not shown) [Example D12, 8-cyclopentyl-2-((3-fluoro-4-(4-methylpiperazin-1-yl)phenyl)amino)-5,8-dihydro-7H-spiro[pyrido[2,3-d]pyrimidine-6,3′-pyrrolidine]-2′,7-dione]
[1]; [5]
  IC50: 2.9 nM
[1]; [3]
  IC50: 2.86 nM
[2]; [4]
  IC50: 1.83 nM
[2]; [6]
  IC50: 1.8 nM

## CN(C)CCOc1ccc(Nc2ncc3c(n2)N(C2CCCC2)C(=O)C2(CCNC2=O)C3)cc1 (stereo not shown) [Example D13, 8-cyclopentyl-2-((4-(2-(dimethylamino)ethoxy)phenyl)amino)-5,8-dihydro-7H-spiro[pyrido[2,3-d]pyrimidine-6,3′-pyrrolidine]-2′,7-dione]
[1]; [3]
  IC50: 6.38 nM
[2]; [4]
  IC50: 3.35 nM

## CN(C)CCOc1ccc(Nc2ncc3c(n2)N(C2CCCC2)C(=O)C2(CCNC2=O)C3)cn1 (stereo not shown) [Example D14, 8-cyclopentyl-2-((6-(2-(dimethylamino)ethoxy)pyridin-3-yl)amino)-5,8-dihydro-7H-spiro[pyrido[2,3-d]pyrimidine-6,3′-pyrrolidine]-2′,7-dione]
[1]; [3]
  IC50: 20.7 nM
[2]; [4]
  IC50: 10.7 nM

## O=C1NCCC12Cc1cnc(Nc3ccc(OCCN4CCCC4)nc3)nc1N(C1CCCC1)C2=O (stereo not shown) [Example D15, 8-cyclopentyl-2-((6-(2-(pyrrolidin-1-yl)ethoxy)pyridin-3-yl)amino)-5,8-dihydro-7H-spiro[pyrido[2,3-d]pyrimidine-6,3′-pyrrolidine]-2′,7-dione]
[1]; [3]
  IC50: 15.8 nM
[2]; [4]
  IC50: 7.08 nM

## O=C1NCCC12Cc1cnc(Nc3ccc(OCCN4CCCC4)c(F)c3)nc1N(C1CCCC1)C2=O (stereo not shown) [Example D16, 8-cyclopentyl-2-((3-fluoro-4-(2-(pyrrolidin-1-yl)ethoxy)phenyl)amino)-5,8-dihydro-7H-spiro[pyrido[2,3-d]pyrimidine-6,3′-pyrrolidine]-2′,7-dione]
[1]; [3]
  IC50: 8.81 nM
[2]; [4]
  IC50: 5.25 nM

## O=C1NCCC12Cc1cnc(Nc3ccc(N4CCOCC4)c(F)c3)nc1N(C1CCCC1)C2=O (stereo not shown) [Example D17, 8-cyclopentyl-2-((3-fluoro-4-morpholinophenyl)amino)-5,8-dihydro-7H-spiro[pyrido[2,3-d]pyrimidine-6,3′-pyrrolidine]-2′,7-dione]
[1]; [3]
  IC50: 10.2 nM
[2]; [4]
  IC50: 4.41 nM

## CC(C)N1CCN(c2ccc(Nc3ncc4c(n3)N(C3CCCC3)C(=O)C3(CCN(C)C3=O)C4)cn2)CC1 (stereo not shown) [Example D18, 8-cyclopentyl-2-((6-(4-isopropylpiperazin-1-yl)pyridin-3-yl)amino)-1′-methyl-5,8-dihydro-7H-spiro[pyrido[2,3-d]pyrimidine-6,3′-pyrrolidine]-2′,7-dione]
[1]; [3]
  IC50: 166 nM
[2]; [4]
  IC50: 53 nM

## CN1CCN(c2ccc(Nc3ncc4c(n3)N(C3CCCC3)C(=O)C3(CCN(C)C3=O)C4)cc2F)CC1 (stereo not shown) [Example D19, 8-cyclopentyl-2-((3-fluoro-4-(4-methylpiperazin-1-yl)phenyl)amino)-1′-methyl-5,8-dihydro-7H-spiro[pyrido[2,3-d]pyrimidine-6,3′-pyrrolidine]-2′,7-dione]
[1]; [3]
  IC50: 97.2 nM
[2]; [4]
  IC50: 33.6 nM

## CN1C(=O)CC2(Cc3cnc(Nc4ccc(N5CCNCC5)cc4)nc3N(C3CCCC3)C2=O)C1=O (stereo not shown) [Example D20, 8-cyclopentyl-1′-methyl-2-((4-(piperazin-1-yl)phenyl)amino)-5,8-dihydro-7H-spiro[pyrido[2,3-d]pyrimidine-6,3′-pyrrolidine]-2′,5′,7-trione]
[1]; [3]
  IC50: 198 nM
[2]; [4]
  IC50: 50.7 nM

## CN1CCN(c2ccc(Nc3ncc4c(n3)N(C3CCCC3)C(=O)C3(CC(=O)N(C)C3=O)C4)cc2)CC1 (stereo not shown) [Example D21, 8-cyclopentyl-1′-methyl-2-((4-(4-methylpiperazin-1-yl)phenyl)amino)-5,8-dihydro-7H-spiro[pyrido[2,3-d]pyrimidine-6,3′-pyrrolidine]-2′,5′,7-trione]
[1]; [3]
  IC50: 166 nM
[2]; [4]
  IC50: 51.2 nM

## CC(C)N1CCN(c2ccc(Nc3ncc4c(n3)N(C3CCCC3)C(=O)C3(CC(=O)N(C)C3=O)C4)cc2)CC1 (stereo not shown) [Example D22, 8-cyclopentyl-2-((4-(4-isopropylpiperazin-1-yl)phenyl)amino)-1′-methyl-5,8-dihydro-7H-spiro[pyrido[2,3-d]pyrimidine-6,3′-pyrrolidine]-2′,5′,7-trione]
[1]; [3]
  IC50: 129 nM
[2]; [4]
  IC50: 28.6 nM

## CN1C(=O)CC2(Cc3cnc(Nc4ccc(N5CCNCC5)cn4)nc3N(C3CCCC3)C2=O)C1=O (stereo not shown) [Example D23, 8-cyclopentyl-1′-methyl-2-((5-(piperazin-1-yl)pyridin-2-yl)amino)-5,8-dihydro-7H-spiro[pyrido[2,3-d]pyrimidine-6,3′-pyrrolidine]-2′,5′,7-trione]
[1]; [3]
  IC50: 65400 nM
[2]; [4]
  IC50: 17100 nM

## CN1C(=O)CC2(Cc3cnc(Nc4ccc(N5CCNCC5)nc4)nc3N(C3CCCC3)C2=O)C1=O (stereo not shown) [Example D24, 8-cyclopentyl-1′-methyl-2-((6-(piperazin-1-yl)pyridin-3-yl)amino)-5,8-dihydro-7H-spiro[pyrido[2,3-d]pyrimidine-6,3′-pyrrolidine]-2′,5′,7-trione]
[1]; [3]
  IC50: 373 nM
[2]; [4]
  IC50: 127 nM

## CN1CCN(c2ccc(Nc3ncc4c(n3)N(C3CCCC3)C(=O)C3(CC(=O)N(C)C3=O)C4)cn2)CC1 (stereo not shown) [Example D25, 8-cyclopentyl-1′-methyl-2-((6-(4-methylpiperazin-1-yl)pyridin-3-yl)amino)-5,8-dihydro-7H-spiro[pyrido[2,3-d]pyrimidine-6,3′-pyrrolidine]-2′,5′,7-trione]
[1]; [3]
  IC50: 455 nM
[2]; [4]
  IC50: 135 nM

## O=C1NCC[C@@]12Cc1cnc(N3CC4(CNC4)C3)nc1N(C1CCCC1)C2=O [Example D198, (S)-8-cyclopentyl-2-(2,6-diazaspiro[3.3]heptan-2-yl)-5,8-dihydro-7H-spiro[pyrido[2,3-d]pyrimidine-6,3′-pyrrolidine]-2′,7-dione]
[1]; Table 4b, lower part, read-out: CDK6 CyclinD3 IC50
  IC50: 16200 nM
